We go through one compound from patent US20240424131A1, “TARGETING NANOPARTICLES FOR THERAPY” (University of Pittsburgh - Of the Commonwealth System of …, priority 2021, published 2024).

For this test, the system named is CT26 cells. The experiment in a line: Transwell co-culture transcytosis, HUVECs and CT26 cells. The test is classed as cell-based. Particulars: NPs applied to HUVECs in upper chamber.

In the case of `O=C(N/N=C/c1ccc(O)c(O)c1)c1cc2ccccc2cc1O` [dynasore], the “transfection of CT26 cells by Cy5.5-siRNA NPs in presence of endocytosis inhibitor” value was “significantly inhibited”.
